Assay results published in patent US6124324A, “Thiophene-ethyl thiourea compounds and use” (Hughes Institute, priority 1999, dated 2000).
Read-outs that look alike come from different tables or passages of the source.

What was measured:
[1] = biological target: T1, purified recombinant HIV RT (Human immunodeficiency virus type 1 group M subtype B, UniProt P04585); assay: Purified RT assay, cell-free Quan-T-RT system (scintillation proximity); assay type: biochemical
T1 construct: purified recombinant HIV RT; purchased Amersham, Arlington Heights, Ill; (Quan-T-RT system)
Procedure: The synthesized compounds were tested for RT inhibitory activity (IC50 [rRT]) against purified recombinant HIV RT using the cell-free Quan-T-RT system (Amersham, Arlington Heights, Ill.), which utilizes the scintillation proximity assay principle as decribed in Bosworth, et al., 1989, Nature 341:167-168. In the assay, a DNA/RNA template is bound to SPA beads via a biotin/strepavidin linkage. The primer DNA is a 16-mer oligo(T) which has been annealed to a poly(A) template. The primer/template is bound to a strepavidin-coated SPA bead.
^3 H-TTP is incorporated into the primer by reverse transcription. In brief, ^3 H-TTP, at a final concentration of 0.5 μCi/sample, was diluted in RT assay buffer (49.5 mM Tris-Cl, pH 8.0, 80 mM KCl, 10 Mm MgCl2, 10 mM DTT, 2.5 mM EGTA, 0.05% Nonidet-P-40), and added to annealed DNA/RNA bound to SPA beads. The compound being tested was added to the reaction mixture at 0.001 μM-100 μM concentrations. […] The reaction was stopped by addition of 0.2 ml of 120 mM EDTA. The samples were counted in an open window using a Beckman LS 7600 instrument and IC50 values were calculated by comparing the measurements to untreated samples.

[2] = system: HIV-1 strain A17 variant (Y181C, K103N); assay: microbe, parasite or virus in culture; assay type: cell-based
Procedure: (§1) In addition, the anti-HIV activity of the compounds was measured by determining their ability to inhibit the replication of the HIV-1 strains HTLVIIIB, RT-MDR, A17, and A17 variant in peripheral blood mononuclear cells (PBMC) from healthy volunteer donors, using the method described in Uckun et.al., 1998, Antimicrobial Agents and Chemotherapy 42:383.
(§2) Normal human peripheral blood mononuclear cells (PBMNC) from HIV-negative donors were cultured 72 hours in RPMI 1640 supplemented with 20% (v/v) heat-inactivated fetal bovine serum (FBS), 3% interleukin-2,2 mM L-glutairine, 25 mM HEPES, 2 μL, NAHCO, […] gentamicin, and 4 Ag/mL phytohemagglutinin prior to exposure to HIV-1 or other HIV strain. The cells were then infected with virus at a multiplicity of infection (MOI) of 0.1 during a one-hour adsorption period at 37° C. in a humidified 5% CO2 atmosphere. Subsequently, cells were cultured in 96-well microplates (100 μL/well; 2×10^6 cells/mL, triplicate wells) in the presence of various inhibitor concentrations. Aliquots of culture supernatants were removed from the wells on the 7 th day after infection for p24 antigen p24 enzyme immunoassays (EIA), as previously described in Erice et al., 1993, Antimicrob. Ag. Chemotherapy 37:385-838. The applied p24 EIA was the unmodified kinetic assay commercially available from Coulter Corporation/Immunotech, Inc. (Westbrook, Me.).
(§3) Percent inhibition of viral replication was calculated by comparing the p24 values from the test substance-treated infected cells with p24 values from untreated infected cells (i.e, virus controls).
(§4) RT-MDR was obtained through the AIDS Research and Reference Reagent Program, from Dr. Bendan Larder, and is described in Larder et al., 1993, Nature, 365, 451-453.

[3] = system: HIV-1 strain RT-MDR (V106A); assay: microbe, parasite or virus in culture; assay type: cell-based; details: for IC50: read-out: IC50 RT-MDR (V106A); for effectiveness against RT-MDR versus HTLVIIIB: more effective against RT-MDR than against HTLVIIIB
Procedure: as §1, §2, §3, §4

HIV-1 strain A17 (Y181C) = assay: microbe, parasite or virus in culture; assay type: cell-based; details: for IC50: read-out: IC50 A17 (Y181C)
Procedure: as §1, §2
(§5) Percent inhibition of viral replication was calculated by comparing the p24 values from the test substance-treated infected cells with p24 values from untreated infected cells (i.e, virus controls). […]

[4] = Microculture Tetrazolium Assay (MTA), cytotoxicity; assay type: cell-based
Procedure: A Microculture Tetrazolium Assay (MTA), using 2,3-bis(2-methoxy-4-nitro-5-sulfophenyl)-5-[(phenylamino)-carbonyl]-2H-tetrazolium hydroxide (XTT), was performed to evaluate the cytotoxicity of the compounds, using the methods described, for example, in Uckun et.al., 1998, Antimicrobial Agents and Chemotherapy 42:383; and Mao et.al., 1998, Bioorg. Med. Chem. Lett. 8:2213.

HIV-1 strain HTLVIIIB [5] = assay: Inhibition of replication of HIV-1 strain HTLVIIIB in PBMC (p24 antigen EIA); assay type: cell-based
Procedure: as §1, §2, §5

HIV-1 strain HTLVIIIB [6] = details: earlier publication (Mao et al.), cited from earlier work; for antiviral potency relative to trovirdine: HTLVIIIB; for abrogated the replication of HTLVIIIB: human PBMC
[7] = system: NNI-resistant HIV-1 strains; details: earlier publication (Mao et al., 1999); cited from earlier work
[8] = IC50 rRT, Table 2; recombinant HIV RT
[9] = inhibition of p24 antigen production in PBMC, read-out: IC50 A17 Varient (Y181C, K103N)
[10] = inhibition of p24 antigen production in PBMC
[11] = XTT cytotoxicity, read-out: CC50 MTA
[12] = Human immunodeficiency virus 1, IIIB, inhibition of p24 antigen production in PBMC, read-out: IC50 HTLV IIIB
[13] = Human immunodeficiency virus 1, PBMC, read-out: IC50 A17 Varient (Y181C, K103N)
[14] = Human immunodeficiency virus 1, PBMC
[15] = IC50 rRT, Table 1 and text; recombinant HIV RT
[16] = Table 1 and text; recombinant HIV RT; read-out: IC90 rRT
[17] = Human immunodeficiency virus 1, IIIB, PBMC, read-out: IC50 HTLV IIIB

Cc1cn([C@H]2C[C@H](N=[N+]=[N-])[C@@H](CO)O2)c(=O)[nH]c1=O [AZT, reference compound]
IC50 [1, 8]: > 100 µM
IC50 [2, 9]: 0.004 µM
IC50 [3, 10]: 0.2 µM
IC50 (HIV-1 strain A17 (Y181C); [10]): 0.006 µM
CC50 [4, 11]: > 100 µM

CC(C)Nc1cccnc1N1CCN(C(=O)c2cc3cc(NS(C)(=O)=O)ccc3[nH]2)CC1 [Delavirdine, reference compound]
IC50 (HIV-1 strain HTLVIIIB [5]; [12]): 0.009 µM
IC50 [2, 13]: > 100 µM
IC50 [3, 14]: 0.4 µM
IC50 (HIV-1 strain A17 (Y181C); [14]): 50 µM

S=C(NCCN1CCCCC1)Nc1ccc(Br)cn1 [HI-172, N-[2-(1-piperidinoethyl)]-N'-[2-(5-bromopyridyl)]thiourea]
IC50 [1, 8]: 0.6 µM
IC50 (HIV-1 strain HTLVIIIB [5]; [12]): < 0.001 µM
IC50 [2, 13]: > 100 µM
IC50 [3, 14]: > 100 µM
IC50 (HIV-1 strain A17 (Y181C); [14]): > 100 µM
CC50 [4, 11]: > 100 µM
antiviral potency relative to trovirdine (HIV-1 strain HTLVIIIB [6]): more potent than trovirdine
abrogated the replication of HTLVIIIB (HIV-1 strain HTLVIIIB [6]): nanomolar concentrations
inhibition of replication of NNI-resistant HIV-1 strains [7]: neither compound inhibited the replication

CN1CCCC1CCNC(=S)Nc1ccc(Br)cn1 (stereo not shown) [HI-206, N-[2-(1-methyl-2-pyrrolidinylethyl)]-N'-[2-(5 bromopyridyl)]thiourea]
IC50 [1, 15]: > 100 µM
IC90 [1, 16]: > 100 µM

S=C(NCCN1CCCC1)Nc1ccc(Br)cn1 [HI-230, N-[2-(1-pyrolidylethyl)]-N'-[2-(5-bromopyridyl)]thiourea]
IC50 [1, 15]: 4.9 µM
IC90 [1, 16]: > 100 µM

Fc1ccccc1CCNC(=S)Nc1ccc(Br)cn1 [HI-240, N-[2-(2-fluorophenethyl)]-N'-[2-(5-bromopyridyl)]thiourea]
IC50 (HIV-1 strain HTLVIIIB [5]; [12]): < 0.001 µM
IC50 [2, 13]: 41 µM
IC50 [3, 14]: 0.005 µM
IC50 (HIV-1 strain A17 (Y181C); [14]): 0.2 µM
CC50 [4, 11]: > 100 µM

S=C(NCc1ccc2c(c1)OCO2)Nc1ccc(Br)cn1 [HI-257, N-[2-(1-piperonyl)]-N'-[2-(5-bromopyridyl)]thiourea]
IC50 [1, 15]: 0.7 µM
IC90 [1, 16]: > 100 µM

S=C(NCCN1CCNCC1)Nc1ccc(Br)cn1 [HI-258, N-[2-(1-piperizinylethyl)]-N'-[2-(5-bromopyridyl)]thiourea]
antiviral potency relative to trovirdine (HIV-1 strain HTLVIIIB [6]): more potent than trovirdine
abrogated the replication of HTLVIIIB (HIV-1 strain HTLVIIIB [6]): nanomolar concentrations
inhibition of replication of NNI-resistant HIV-1 strains [7]: neither compound inhibited the replication

S=C(NCCN1CCOCC1)Nc1ccc(Br)cn1 [HI-276, N-[2-(5-Bromopyridinyl)]-N'-[2-(4-Morpholinoethyl)]thiourea]
IC50 [1, 15]: > 100 µM
IC90 [1, 16]: > 100 µM

S=C(NCCc1cnc[nH]1)Nc1ccc(Br)cn1 [HI-436, N-[2-(5-Bromopyridinyl)]-N'-[2-(2-Imidazolylethyl)]thiourea]
IC50 [1, 15]: > 100 µM
IC90 [1, 16]: > 100 µM

S=C(NCCc1c[nH]c2ccccc12)Nc1ccc(Br)cn1 [HI-442, N-[2-(5-Bromopyridinyl)]-N'-[2-(3-Indolylethyl)]thiourea]
IC50 [1, 15]: 0.9 µM
IC90 [1, 16]: > 100 µM

S=C(NCCc1cccs1)Nc1ccc(Br)cn1 [HI-443, N-[2-(5-Bromopyridinyl)]-N'-[2-(2-Thiophenylethyl)]thiourea]
IC50 [1, 15]: 0.8 µM
IC50 [1, 8]: 5.3 µM
IC90 [1, 16]: 15 µM
IC90 ([1]; read-out: IC90 rRT; Table 1 and text; recombinant HIV RT): 12 µM
inhibited recombinant RT in vitro ([1]; recombinant RT in vitro): more than 90%
IC50 (HIV-1 strain HTLVIIIB [5]; [17]): 0.03 µM
IC50 (HIV-1 strain HTLVIIIB [5]; Human immunodeficiency virus 1, PBMC, read-out: average IC50, HTLVIIIB replication): 0.03 µM
IC50 HTLVIIIB relative to HI-172 (HIV-1 strain HTLVIIIB [5]; times higher than IC50 of HI-172): 30 times
IC50 HTLVIIIB relative to trovirdine (HIV-1 strain HTLVIIIB [5]; times higher than IC50 of trovirdine): 5 times
IC50 ([2]; Human immunodeficiency virus 1, PBMC, read-out: IC50, A17 variant replication): 3.26 µM
IC50 [2, 13]: 3.26 µM
potency against A17 variant versus HTLVIIIB ([2]; fold lower potency than HTLVIIIB, 10080 min): 100 fold
IC50 [3, 14]: 0.004 µM
effectiveness against RT-MDR versus HTLVIIIB [3]: ten
effectiveness against RT-MDR versus HTLVIIIB ([3]; 10080 min): 10 times
potency against RT-MDR relative to AZT ([3]; more potent than AZT): 50 times
potency against RT-MDR relative to HI-172 ([3]; more potent than HI-172): 25,000 times
potency against RT-MDR relative to HI-240 ([3]; more potent than HI-240): 1.25 times
potency against RT-MDR relative to MKC-442 ([3]; more potent than MKC-442): 75 times
potency against RT-MDR relative to delavirdine ([3]; more potent than delavirdine): 100 times
potency against RT-MDR relative to nevirapine ([3]; more potent than nevirapine): 1250 times
potency against RT-MDR relative to trovirdine ([3]; more potent than trovirdine): 5 times
IC50 (HIV-1 strain A17 (Y181C); [14]): 0.048 µM
potency against A17 relative to HI-172 (HIV-1 strain A17 (Y181C); more potent than HI-172): 2083 times
potency against A17 relative to HI-240 (HIV-1 strain A17 (Y181C); more potent than HI-240): 4.2 times
potency against A17 relative to delavirdine (HIV-1 strain A17 (Y181C); more potent than delavirdine): 1042 times
potency against A17 relative to nevirapine (HIV-1 strain A17 (Y181C); more potent than nevirapine): 2083 times
potency against A17 relative to trovirdine (HIV-1 strain A17 (Y181C); more potent than trovirdine): 10 times
CC50 [4, 11]: > 100 µM

S=C(NCc1ccco1)Nc1ccc(Br)cn1 [HI-503, N-[2-(5-Bromopyridinyl)]-N'-[2-(2-Furylmethyl)]thiourea]
IC50 [1, 15]: 1.2 µM
IC90 [1, 16]: > 100 µM

CCOCn1c(Cc2ccccc2)c(C(C)C)c(=O)[nH]c1=O [MKC-442, reference compound]
IC50 [3, 14]: 0.3 µM
CC50 [4]: > 100 µM

Cc1ccnc2c1NC(=O)c1cccnc1N2C1CC1 [Nevirapine, reference compound]
IC50 (HIV-1 strain HTLVIIIB [5]; [12]): 0.034 µM
IC50 [2, 9]: > 100 µM
IC50 [3, 10]: 5 µM
IC50 (HIV-1 strain A17 (Y181C); [10]): > 100 µM

S=C(NCCc1ccccn1)Nc1ccc(Br)cn1 [Trovirdine, reference compound]
IC90 [1, 16]: 12 µM
inhibited recombinant RT in vitro ([1]; recombinant RT in vitro): more than 90%
IC50 (HIV-1 strain HTLVIIIB [5]; [17]): 0.007 µM
IC50 [2, 13]: > 100 µM
IC50 [3, 14]: 0.02 µM
IC50 (HIV-1 strain A17 (Y181C); [14]): 0.5 µM
CC50 [4]: > 100 µM
